Measurements: patent US5622688A, “Macrocyclic chelants, their chelates and uses thereof in the diagnostic field” (Dibra S.p.A., priority 1994, dated 1997)
Read-outs that look alike come from different tables or passages of the source.

What was measured:
[1] = cited from earlier work; for formal charge: background, gadolinium chelate before salification
[2] = Osmolality of aqueous solutions; format: physicochemical
mice = assay: Acute toxicity LD50 i.v. in mice; format: in vivo
From the text: Some of the available data relative to Gd chelates of this invention are detailed in Example 4, together with a comparison with the known data of the following commercially available products: DOTAREM®, OMNISCAN®, PROHANCE®. The datum relative to Gd-DTPA-bismethylammide, Gd-DTPA-BMA, which is the active ingredient of OMNISCAN®, is also reported, even if there is remarkable difference in the LD50 values. Such a difference is known to be due to the simultaneous presence in OMNISCAN® of Gd-DTPA-BMA 500 mM, and of the complex of the same ligand with sodium and calcium, Na[CaDTPA-BMA], at a 25 mM concentration. Therefore the comparison of this last datum with those available for the compounds of this invention is more significant as far as determination homogeneity is concerned.

Charge = format: physicochemical; conditions: Table I, own compound

Row | Structure (SMILES) | formal charge [1] | LD50 (mice) i.v. (mice) [mmol/kg] | further results
1 | CNC(=O)CN(CCN(CCN(CC(=O)[O-])CC(=O)NC)CC(=O)[O-])CC(=O)[O-].[Gd+3] [GdDTPA-BMA, Gd-DTPA-bismethylamide] |  |  | CHARGE ([1]; Table I, from the data available on the product brochures): non-ionic
2 | O=C([O-])CN1CCN(CC(=O)[O-])CCN(CC(=O)O)CCN(CC(=O)[O-])CC1.[Gd+3] [Gd-DOTA] | -1 |  | 
3 | C=C(C(=O)NCCOCCO)N1CCN(CC(=O)[O-])CCN(CC(=O)[O-])CCN(CC(=O)[O-])CC1.[Gd+3] [Example 2, Gadolinium complex of 10-[2-[[2-(2-hydroxyethoxy)ethyl]amino]-1-(methylene)-2-oxoethyl]-1,4,7,10-tetraazacyclododecan-1,4,7-triacetic acid] |  | 37.6 | OSMOLALITY [2]: 855 mOsm/kg H2 O; CHARGE (Charge): non-ionic
4 | O=C([O-])CN(CCN(CC(=O)[O-])CC(=O)O)CCN(CC(=O)[O-])CC(=O)O.[Gd+3] [Gd-DTPA] | -2 |  | 
5 | CC(C(=O)NC(CCCO)(CCCO)CCCO)N1CCN(CC(=O)[O-])CCN(CC(=O)[O-])CCN(CC(=O)[O-])CC1.[Gd+3] (stereo not shown) [Example 1, Gadolinium complex of 10-[2-[[1,1-bis(3-hydroxypropyl)-4-hydroxybutyl]amino]-1-methylene-2-oxoethyl]-1,4,7,10-tetraazacyclododecan-1,4,7-triacetic acid] |  | 23.4 | 
